Measurements: patent US20240148835A1, “TREATING DISORDERS ASSOCIATED WITH DYRK1A DYSFUNCTION” (UNIVERSITY OF FLORIDA RESEARCH FOUNDATION, INCORPORATED, priority 2021, published 2024)
“Also recorded” adds a separate entry of the source.

Experiments:
[1] = test system: Dyrk1a cHets; assay: Chronic (1-3)IGF-1 treatment from P14: cortical and neuronal morphology; type: in vivo, mouse
Description: To test whether administration of the active peptide (1-3)IGF-1 restores cortical growth in cHets, we utilized the following paradigm: controls and cHets were treated daily with either (1-3)IGF-1 or vehicle beginning at P14. A behavioral battery began at P56 and daily injections continued until the mice were sacrificed for downstream analysis (FIG. 17A). […] As the impact of loss-of-function Dyrk1a mutations on spine density has not been investigated in vivo, we measured spine density on primary neurites of layer V pyramidal neurons in the mPFC. […] Together, these findings indicate that chronic (1-3)IGF-1 treatment beginning at P14 rescues microcephaly and neuronal undergrowth in Dyrk1a cHets.
(1-3)IGF-1 was acquired from VWR/Bachem (catalog #H-2468.1000) and dissolved in saline with 0.01% BSA fresh every day. Intraperitoneal injections of 10 mg kg′ (1-3)IGF-1 or vehicle were delivered daily at 8 a.m. starting on P14 and ending on P85. […] The S6K1 inhibitor PF-4708671 was acquired from Medkoo Biosciences (#406432) dissolved in 10% DMSO, 10% tween 80 and 80% water. (1-3)IGF-1 (10 mg kg′) and PF-4708671 (50 mg kg^−1) or vehicle were injected subcutaneously into pups from P0 to P7. Rapamycin was acquired from LC laboratories (R-5000) and dissolved in 4% ethanol, 5% tween-80, and 5% PEG400 in PBS. (1-3)IGF-1 (10 mg kg′) and Rapamycin (1 mg kg′) or vehicle were injected subcutaneously into pups from P0 to P7. SB216763 was acquired from TOCRIS (#1616) and dissolved in 5% DMSO and 0.9% saline in dH20. SB216763 (0.5 mg kg′) was injected subcutaneously into pups from P0 to P7.
Adult animals were perfused with 4% PFA and pups underwent rapid decapitation and dissection. After 18 hours post-fixation in 4% PFA, brains were incubated in a 20% sucrose/PBS solution at 4° C. for 2-3 days and embedded in Tissue-Tek OCT compound (Sakura). 40 μm sections were collected on Superfrost/Plus slides and stained. DAPI was used for nuclear labeling (Invitrogen, catalog #D3571). Slides were mounted with Vectashield HardSet and images were obtained with an Olympus VS120 microscope and processed using the VS-DESKTOP software (Olympus) or ImageJ (NIH). Ventricle size was analyzed by drawing an ROI around the entire ventricle in 2-3 plane-matched sections per animal.
Following rapid decapitation, brains were removed and processed using the FD Rapid Golgistain™ kit (FD Neurotechnologies, Columbia MD) following the manufacturer's instructions. A Leica vibrating microtome was used to cut 100 μm coronal sections in 6% sucrose in PBS. The sections were then mounted on gelatin-coated slides and stained using the FD Rapid Golgistain™ kit. Individual neurons were imaged using a Leica DM5500B 20× objective and reconstructed using Neuromantic software. After reconstruction, Sholl analysis was performed in ImageJ using the Simple Neurite Tracer. Primary neurites were selected for spine density analysis where the number of spines was counted and divided by the length of the neurite fragment. Soma size was measured using the ROI freehand tool on imageJ (NIH).

[2] = test system: ASD mouse models; details: cited from earlier work
[3] = test system: Dyrk1a cHets; assay: Neonatal (1-3)IGF-1 injection in Dyrk1a cHet pups: cortex mass, layer V soma size, p-S6; type: in vivo, mouse
Description: We next aimed to increase mTOR signaling via pharmacological intervention. Because activation of TrkB receptor is decreased in cKOs, treating mice with exogenous BDNF may not be effective. To circumvent this issue while stimulating the same signaling cascades, we injected neonatal pups with (1-3)IGF-1 (GPE), a tripeptide cleaved from the N-terminus of IGF-1 (44). Pups were injected daily from P0 to P7 with 10 μg/g (1-3)IGF-1 or vehicle based on a previously described treatment paradigm (45). Eight hours post-injection on P7, pups were sacrificed, and brains were fixed (FIG. 7F).
(1-3)IGF-1 treatment: (1-3)IGF-1 was acquired from VWR/Bachem (catalog #H-2468.1000) and dissolved in saline with 0.01% BSA fresh every day. Intraperitoneal injections of 10 μg/g (1-3)IGF-1 or vehicle were delivered daily at 8 a.m. starting on P1 and ending on P7. […] Pups were individually removed, injected, and placed back in the home cage with the dam. On P7, 6 hours post-injection, pups were rapidly decapitated for downstream analysis.
Immunohistochemistry: Adult animals were perfused with 4% PFA, and pups underwent rapid decapitation and dissection. After 18 hours post-fixation in 4% PFA, brains were incubated in a 20% sucrose/PBS solution at 4° C. for 2-3 days and embedded in Tissue-Tek OCT compound (Sakura). 40 μm sections were collected on Superfrost/Plus slides and stained. The following primary antibodies were used following antigen retrieval (10 min. in boiling 10× citrate buffer): anti-cleaved caspase 3 (1:1000, Cell Signaling Technology, catalog #9661S), anti-Ctip2 (1:2000, Abcam, catalog #18465), anti-p-S6 Ser235/236 (1:2000, Cell Signaling Technology, catalog #4858S). AlexaFluor-488, -594, and -647-conjugated secondary antibodies (1:2000) were purchased from Invitrogen. DAPI was used for nuclear labeling (Invitrogen, catalog #D3571). Slides were mounted with Vectashield HardSet and images were obtained with an Olympus VS120 microscope and processed using the VS-DESKTOP software (Olympus) or ImageJ (NIH).
For p-S6 intensity, P0, P7, and adult sections were stained with Ctip2 and p-S6 (Ser235/236). […] After image acquisition, Ctip2+ neurons were measured for p-S6 mean gray intensity. 25-30 neurons were measured per section and 2 plane-matched sections were analyzed per animal.
For soma size analysis, sections were stained with NeuroTrace green fluorescent Nissl stain (1:100 dilution, Life Technologies catalog #N-21480) and washed with PBS. After image acquisition, somas in each layer in somatosensory cortex (51) were measured using the ImageJ freehand tool. Layers were denoted based on anatomical boundaries using DAPI staining. 30-35 somas were measured per layer and 2-3 plane-matched sections were analyzed per animal. This was done based on a previously published technique (8).

[4] = test system: mouse model of Rett syndrome; details: chronic administration, same paradigm; cited from earlier work

(1-3)IGF-1: a tripeptide cleaved from the N-terminus of IGF-1; acquired from VWR/Bachem, CAS No. 32302-76-4 (GPE; Insulin-like growth factor 1; UniProt P05019 49-51, looked up, fragment)
neuronal complexity of layer V pyramidal neurons in the mPFC (Sholl analysis) ([1]; daily from P14, adult cHets): restored the neuronal complexity; also recorded: rescued | soma size of layer V pyramidal neurons ([1]; daily from P14, adult cHets): restored the significantly smaller neuronal soma size; also recorded: rescued | ventricle area in cHets ([1]; daily from P14, adult cHets): normalized; also recorded: rescued | spine density of layer V pyramidal neurons in the mPFC ([1]; daily from P14, adult cHets, primary neurites): significantly increased; also recorded: partially restored | cortex mass (cortical growth) of cHets ([1]; daily i.p. 10 mg kg from P14, adult cHets): rescued cortical growth in cHets; also recorded: restored | cortex mass (cortical growth) of controls ([1]; daily i.p. 10 mg kg from P14, controls): no effect on controls | brain penetrance ([2]; ASD mouse models, dosage 10 μg/g (10 mg kg)): brain penetrance | signaling downstream of IGF-1 ([2]; within 3 hours post-injection): increased signaling downstream of IGF-1 | cortex mass of controls ([3]; control pups, 10 μg/g daily to P7): no effect | p-S6 per layer V neuron in cHets ([3]; neonatal cHets, 10 μg/g daily to P7, Ctip2+ neurons): normal levels; also recorded: rescues the decreased p-S6 | soma size of layer V neurons in cHets ([3]; neonatal cHets, 10 μg/g daily to P7, Nissl stain): comparable to controls; also recorded: rescues the decreased soma size | cortex mass of cHets ([3]; neonatal cHets, 10 μg/g daily to P7, analysed P7, vs vehicle): rescues the decreased cortex mass | lifespan, motor coordination, cardiac function, microcephaly, spine density, and synaptic function [4]: significantly improved
